Data published in patent publication US20150367004A1, “COMPOSITIONS AND METHODS OF DIAGNOSING OCULAR DISEASES” (MOLECULAR TARGETING TECHNOLOGIES, INC., priority 2012, published 2015).

Test system: corneal surface after BAC-induced toxicity
Experiment: In vivo fluorescence imaging of the cornea after BAC-induced corneal toxicity, compared with lissamine green staining
Parameters: species or system rat
Conditions: 0.1% and 0.2% BAC twice daily for 7 days
Description: Adult Wistar rats were given topical instillation of 0.2, 0.1 and 0.02% BAC in 0.9% balanced salt solution (BSS) twice daily for 7 days. External ocular examination was performed and lissamine green staining was used to evaluate the corneal damage prior to and after experiments. One hour after topical Zn-DPA 480 administration, convention light and fluorescence images were taken on animals.
There was no remarkable change on the cornea after administration of BSS. Results are illustrated in FIG. 3.

CN(C)c1ccc(C(=C2C=CC(=[N+](C)C)C=C2)c2c(O)c(S(=O)(=O)[O-])cc3cc(S(=O)(=O)[O-])ccc23)cc1.[Na+] [lissamine green]
Corneal staining: positive lissamine green staining
